Key:
Assay type in all cases: cell-based
SST2 = target: T1, SST2 (Homo sapiens, UniProt P30874); assay: PathHunter CHO-K1 SST2 internalization assay; conditions: PathHunter CHO-K1 SST2, 90 min; read-out: Internalization EC50
T1 construct: host or cells: PathHunter CHO-K1 SST2 cells
Method in brief: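 IC50 comes from four-parameter curves on background-corrected duplicates of Beta-Glo luminescence, read after 60 min at room temperature in the dark. Before that, CHO-K1 SST2 internalization cells (48 h post-seeding) received SMDC as eleven threefold dilutions, 10 uM highest final, for 90 min at 37 C.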

[1] = tested on: NCI-H524 (ATCC) human small cell lung cancer cells; conditions: 2 h
Method in brief: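 CellTiter-Glo luminescence after a 2 h SMDC pulse (top dose 1 uM, 2-fold dilutions, 11 points), medium wash, then 70 h recovery. Cells were seeded at 5,000/well and dosed 24 h later. % inhibition vs control gave IC50 via four-parameter fit.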

[2] = target: T2, human somatostatin receptor subtype 2 (Homo sapiens, UniProt P30874); assay: Functional cAMP assay for SSTR2 agonists (HTRF) in CHO-K1 cells; conditions: CHO-K1 cells stably expressing human SST2, 20 min; read-out: hSST2 cAMP Avg EC50
T2 construct: expressed in transfected cells
Method in brief: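 Agonism scored as loss of NKH477 (1.6 μM)-driven cAMP, with IBMX present, after 20 min, 37° C. exposure of stably transfected CHO-K1 cells to compound dilutions (typically 0-10,000 nM). Lysates read by time-resolved FRET; cAMP interpolated from standard curve and EC50 derived.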

T1 sequence (P30874 whole entry): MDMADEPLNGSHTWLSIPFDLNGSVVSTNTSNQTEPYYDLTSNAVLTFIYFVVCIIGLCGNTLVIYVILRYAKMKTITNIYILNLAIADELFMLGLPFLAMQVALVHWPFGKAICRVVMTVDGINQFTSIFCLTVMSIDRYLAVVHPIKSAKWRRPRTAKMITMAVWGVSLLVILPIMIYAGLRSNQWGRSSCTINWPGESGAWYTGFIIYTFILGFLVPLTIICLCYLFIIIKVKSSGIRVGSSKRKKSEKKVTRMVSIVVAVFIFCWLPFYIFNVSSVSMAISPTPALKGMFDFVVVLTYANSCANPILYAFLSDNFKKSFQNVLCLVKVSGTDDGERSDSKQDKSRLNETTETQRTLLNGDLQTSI
T2 sequence (P30874 whole entry): as above

Structure (SMILES): CC[C@H](C)[C@@H]([C@@H](CC(=O)N1CCC[C@H]1[C@H](OC)[C@@H](C)C(=O)N[C@H](C)[C@@H](O)c1ccccc1)OC)N(C)C(=O)[C@@H](NC(=O)[C@H](C(C)C)N(C)C(=O)OCc1ccc(NC(=O)[C@H](CCCNC(N)=O)NC(=O)[C@@H](NC(=O)CN2CCN(CC(=O)NCCOCCOCCOCCOCCC(=O)NCCNc3ncc(-c4cc(C)cc(F)c4)c(N4CCC(N)CC4)c3-c3nc4ccc(Cl)cc4[nH]3)CCN(CC(=O)NCCOCCOCCOCCOCCC(=O)NCCNc3ncc(-c4cc(C)cc(F)c4)c(N4CCC(N)CC4)c3-c3nc4ccc(Cl)cc4[nH]3)CC2)C(C)C)cc1)C(C)C [Compound 46]
- EC50 (SST2): 26.1 nM
- EC50 [1]: 85.9 nM
- EC50 [2]: 0.54 nM

Structure (SMILES): CC[C@H](C)[C@@H]([C@@H](CC(=O)N1CCC[C@H]1[C@H](OC)[C@@H](C)C(=O)N[C@H](C)[C@@H](O)c1ccccc1)OC)N(C)C(=O)[C@@H](NC(=O)[C@H](C(C)C)N(C)C(=O)OCc1ccc(NC(=O)[C@H](CCCNC(N)=O)NC(=O)[C@@H](NC(=O)[C@H](CCC(=O)O)NC(=O)CCOCCOCCOCCOCCC(=O)NCCNc2ncc(-c3cc(C)cc(F)c3)c(N3CCC(N)CC3)c2-c2nc3ccc(Cl)cc3[nH]2)C(C)C)cc1C(=O)NCCN)C(C)C [Compound 47]
- EC50 (SST2): 9 nM
- EC50 [1]: 18.7 nM
- EC50 [2]: 0.091 nM

Structure (SMILES): CC[C@H](C)[C@@H]([C@@H](CC(=O)N1CCC[C@H]1[C@H](OC)[C@@H](C)C(=O)N[C@H](C)[C@@H](O)c1ccccc1)OC)N(C)C(=O)[C@@H](NC(=O)[C@H](C(C)C)N(C)C(=O)OCc1ccc(NC(=O)[C@H](CCCNC(N)=O)NC(=O)[C@@H](NC(=O)CCOCCOCCOCCOCCC(=O)NCCNc2ncc(-c3cc(C)cc(F)c3)c(N3CCC(N)CC3)c2-c2nc3ccc(Cl)cc3[nH]2)C(C)C)cc1C(=O)NCCNC(=O)CCOCCOCCOCCOCCN)C(C)C [Compound 48]
- EC50 (SST2): 6.9 nM
- EC50 [1]: 12.4 nM
- EC50 [2]: 0.26 nM

Structure (SMILES): CC[C@H](C)[C@@H]([C@@H](CC(=O)N1CCC[C@H]1[C@H](OC)[C@@H](C)C(=O)N[C@H](C)[C@@H](O)c1ccccc1)OC)N(C)C(=O)[C@@H](NC(=O)[C@H](C(C)C)N(C)C(=O)OCc1ccc(NC(=O)[C@H](CCCNC(N)=O)NC(=O)[C@@H](NC(=O)CCOCCOCCOCCOCCC(=O)NCCNc2ncc(-c3cc(C)cc(F)c3)c(N3CCC(N)CC3)c2-c2nc3ccc(Cl)cc3[nH]2)C(C)C)cc1C(=O)NCCN)C(C)C [Compound 50]
- EC50 (SST2): 7.7 nM
- EC50 [1]: 5.8 nM
- EC50 [2]: 0.15 nM

Structure (SMILES): CC[C@H](C)[C@@H]([C@@H](CC(=O)N1CCC[C@H]1[C@H](OC)[C@@H](C)C(=O)N[C@H](C)[C@@H](O)c1ccccc1)OC)N(C)C(=O)[C@@H](NC(=O)[C@H](C(C)C)N(C)C(=O)OCc1ccc(NC(=O)[C@H](CCCNC(N)=O)NC(=O)[C@@H](NC(=O)[C@H](CCC(=O)O)NC(=O)CCOCCC(=O)NCCNc2ncc(-c3cc(C)cc(F)c3)c(N3CCC(N)CC3)c2-c2nc3ccc(Cl)cc3[nH]2)C(C)C)cc1C(=O)NC)C(C)C [Compound 51]
- EC50 (SST2): 6.3 nM
- EC50 [1]: 130 nM
- EC50 [2]: 0.22 nM

Structure (SMILES): CC[C@H](C)[C@@H]([C@@H](CC(=O)N1CCC[C@H]1[C@H](OC)[C@@H](C)C(=O)N[C@H](C)[C@@H](O)c1ccccc1)OC)N(C)C(=O)[C@@H](NC(=O)[C@H](C(C)C)N(C)C(=O)OCc1ccc(NC(=O)[C@H](CCCNC(N)=O)NC(=O)[C@@H](NC(=O)[C@H](CCC(=O)O)NC(=O)CCOCCOCCOCCOCCC(=O)NCCNc2ncc(-c3cc(C)cc(F)c3)c(N3CCC(N)CC3)c2-c2nc3ccc(Cl)cc3[nH]2)C(C)C)cc1)C(C)C [Compound 52]
- EC50 (SST2): 9.1 nM
- EC50 [1]: 48 nM
- EC50 [2]: 0.24 nM

Structure (SMILES): CC[C@H](C)[C@@H]([C@@H](CC(=O)N1CCC[C@H]1[C@H](OC)[C@@H](C)C(=O)N[C@H](C)[C@@H](O)c1ccccc1)OC)N(C)C(=O)[C@@H](NC(=O)[C@H](C(C)C)N(C)C(=O)OCc1ccc(NC(=O)[C@H](CCCNC(N)=O)NC(=O)[C@@H](NC(=O)[C@H](CCC(=O)O)NC(=O)CCOCCOCCOCCOCCC(=O)NCCNc2ncc(-c3cc(C)cc(F)c3)c(N3CCC(N)CC3)c2-c2nc3ccc(Cl)cc3[nH]2)C(C)C)cc1C(=O)NC)C(C)C [Compound 53]
- EC50 (SST2): 13 nM
- EC50 [1]: 100 nM
- EC50 [2]: 0.16 nM

Structure (SMILES): CC[C@H](C)[C@@H]([C@@H](CC(=O)N1CCC[C@H]1[C@H](OC)[C@@H](C)C(=O)N[C@H](C)[C@@H](O)c1ccccc1)OC)N(C)C(=O)[C@@H](NC(=O)[C@H](C(C)C)N(C)C(=O)OCc1ccc(NC(=O)[C@H](CCCNC(N)=O)NC(=O)[C@@H](NC(=O)[C@H](CCC(N)=O)NC(=O)CCOCCC(=O)NCCNc2ncc(-c3cc(C)cc(F)c3)c(N3CCC(N)CC3)c2-c2nc3ccc(Cl)cc3[nH]2)C(C)C)cc1C(=O)NC)C(C)C [Compound 54]
- EC50 (SST2): 10 nM
- EC50 [1]: 17 nM
- EC50 [2]: 0.17 nM
